# Laboratory results reported in patent US11733243B2, “Use of acamprosate to modulate ERK1/2 activation in animal models for FXS and ASD and individuals diagnosed with FXS and ASD” (Indiana University Research and Technology Corporation, priority 2013, dated 2023).
# “Also recorded” adds a separate entry of the source.
# How the values were obtained:
# [1] = molecular target: T1, mGluR5 (Mus musculus, UniProt Q3UVX5); details: in vivo; cited from earlier work
# T1 construct: host or cells: fmr1 knockout mouse, in vivo
# T1 sequence (Q3UVX5 19-1203): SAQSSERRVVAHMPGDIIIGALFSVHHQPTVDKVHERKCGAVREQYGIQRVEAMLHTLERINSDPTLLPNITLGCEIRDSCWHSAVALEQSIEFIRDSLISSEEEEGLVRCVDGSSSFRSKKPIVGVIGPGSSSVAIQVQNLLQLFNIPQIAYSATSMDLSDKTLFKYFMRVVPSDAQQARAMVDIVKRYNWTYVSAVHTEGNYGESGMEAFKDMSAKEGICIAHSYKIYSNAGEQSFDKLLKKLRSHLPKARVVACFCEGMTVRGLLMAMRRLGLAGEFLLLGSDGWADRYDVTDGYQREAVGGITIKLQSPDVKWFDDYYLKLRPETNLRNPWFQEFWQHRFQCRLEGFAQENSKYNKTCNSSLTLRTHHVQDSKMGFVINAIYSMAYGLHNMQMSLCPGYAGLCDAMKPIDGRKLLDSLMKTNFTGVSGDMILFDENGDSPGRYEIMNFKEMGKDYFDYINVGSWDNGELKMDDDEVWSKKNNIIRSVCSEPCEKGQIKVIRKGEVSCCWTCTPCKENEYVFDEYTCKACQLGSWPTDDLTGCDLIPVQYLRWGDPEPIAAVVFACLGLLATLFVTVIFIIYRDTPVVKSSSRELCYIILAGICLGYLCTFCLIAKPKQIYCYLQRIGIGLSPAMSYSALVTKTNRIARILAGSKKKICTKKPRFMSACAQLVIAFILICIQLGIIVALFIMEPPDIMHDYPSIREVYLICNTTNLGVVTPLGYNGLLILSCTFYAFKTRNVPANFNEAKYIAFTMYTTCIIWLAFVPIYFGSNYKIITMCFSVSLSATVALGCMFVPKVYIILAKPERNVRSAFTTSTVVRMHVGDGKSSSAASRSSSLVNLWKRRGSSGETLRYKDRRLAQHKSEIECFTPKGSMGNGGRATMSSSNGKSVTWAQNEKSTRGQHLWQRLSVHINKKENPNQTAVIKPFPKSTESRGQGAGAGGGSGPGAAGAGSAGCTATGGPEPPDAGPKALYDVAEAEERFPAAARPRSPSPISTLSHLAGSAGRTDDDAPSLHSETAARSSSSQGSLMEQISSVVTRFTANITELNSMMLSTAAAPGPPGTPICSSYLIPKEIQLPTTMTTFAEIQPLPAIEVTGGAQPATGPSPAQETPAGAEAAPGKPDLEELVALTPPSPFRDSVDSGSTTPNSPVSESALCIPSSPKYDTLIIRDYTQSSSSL
# [2] = tested on: adults with FXS; details: single dose, cited from earlier work
# [3] = tested on: fmr1 KO mice; details: mouse, in vivo; cited from earlier work
# [4] = tested on: ERK1/2; details: adults with FXS; cited from earlier work
# [5] = tested on: fmr1 knockout mice; details: mouse, in vivo; cited from earlier work
# [6] = tested on: subjects with FXS; details: cited from earlier work
# [7] = tested on: alcohol intake; details: mouse, in vivo; cited from earlier work
# [8] = tested on: alcohol withdrawal associated anxiety; details: in vivo; cited from earlier work
# [9] = tested on: cerebellar granule cells from fmr1 knockout mice; details: cited from earlier work
# [10] = tested on: persons with FXS and comorbid ASD; details: 6 persons; cited from earlier work
# [11] = tested on: males with FXS; details: cited from earlier work
# [12] = tested on: ERK/MAPK; assay: ICC of fixed lymphocytes for ERK/MAPK activity (anti-phospho-Thr202/Tyr204); format: cell-based, human; details: tamoxifen, 10 mM
# Procedure: Lymphocyte samples were prepared from patient's blood and plated onto a PDL-coated 24-well plate. Cells were fixed by adding 4% paraformaldehyde in PB solution (at RT). Excess paraformaldehyde solution was aspirate out. The fixed cells were washed three times gently with cold DPBS (Bulbecco-modified phosphate buffered saline). Then 0.12% Triton X-100 (diluted in DPBS) was added onto the cells at RT and incubated for 20 minutes at RT. Excess Triton X solution was aspirated out and cells were washed three times (gently) with chilled DPBS. Cells were blocked with 10% horse serum (HS) (diluted in DPBS) for 20 minutes at RT. Unbound blocking agent was washed off. The primary antibody diluted in 1% HS in DPBS was added. Generally a dilution of 1:250 was used. The antibody, which is raised in rabbit recognizes Phospho-Thr202/Tyr204 of ERK/MAPK, which indicates translocation of activated ERK/MAPK into the […] compartment.
# Incubation with the primary antibody was done for overnight at 4° C. Unbound primary antibody was washed off, and at this stage the plate can be stored at 4° C. Washed three times at RT with cold DPBS. Added Alexa Fluor conjugated goat anti rabbit (diluted 1:200 in DPBS) and incubated at RT for 1-2 hr. This reagent and this step is light sensitive to. For best results the reagent and this step of the procedure should be kept away from the light. […]
smiles,measurement,setting,value
"Cc1cccc(C#Cc2ccccc2)n1 [MPEP, 2-methyl-6-(phenylethynyl)-pyridine]",effect on phenotypic characteristics of the fmr1 mouse model,[1],"reverse phenotypic characteristics, including audiogenic seizures, altered pre-pulse inhibition (PPI), and open field hyperactivity"
CN1CC(=O)NC1=NC(=O)Nc1cccc(Cl)c1 [fenobam],subjects experiencing mild sedation,[2]; 12 adults with FXS,25%
same,subjects who experienced clinical benefit,"[2]; 12 adults with FXS, reductions in hyperactivity and anxiety",75%
same,pharmacokinetics,[2],variable pharmacokinetics
same,tolerability,[2],good tolerability
CC(=O)[C@H]1CC[C@H]2[C@@H]3CC[C@H]4C[C@H](O)CC[C@]4(C)[C@H]3C(=O)C[C@]12C [alphaxalone],effect on phenotype of fmr1 KO mice,[3],reductions in anxiety and rescue of audiogenic seizures
Nc1nc2ccc(OC(F)(F)F)cc2s1 [riluzole],ERK1/2 activation rates,[4],modifies ERK1/2 activation rates
"NC[C@H](CC(=O)O)c1ccc(Cl)cc1 (single isomer, unassigned) [STX209]",effect on protein synthesis and dendritic spines,[5],correction of aberrant protein synthesis and dendritic spine abnormalities
same,"ABC Irritability (ABC-I) subscale, primary outcome measure",[6]; 63 subjects aged 6 to 40 years,not associated with improvement on the primary outcome measure
same,"ABC-SW and VABS Socialization, post-hoc 27 subject subset with baseline ABC-SW >8","[6]; human, in vivo",significant STX209-associated improvement
same,"Social Avoidance scale (ABC-SA), post-hoc analysis","[6]; human, in vivo",significant group-wide improvement
same,subjects reporting sedation,"[6]; human, in vivo",8%
same,tolerability,"[6]; human, in vivo",well tolerated
"Cc1nc(C#Cc2cccnc2)cs1 [MTEP, 3-((2-Methyl-4-thiazolyl)ethynyl)pyridine]",alcohol intake,[7],reduced alcohol intake
same,alcohol withdrawal associated anxiety effects,[8],reduce alcohol withdrawal associated anxiety effects
CC12CC3CC(C)(C1)CC(N)(C3)C2 [memantine],dendritic spine development and synapse formation,[9],correction of dendritic spine development and synapse formation
same,subjects who developed treatment limiting irritability,[10],Two
same,subjects with clinical response (CGI-I very much improved or much improved),[10],67%
Oc1noc2c1CCNC2 [gaboxadol],effect on phenotype of fmr1 KO mice,[3],"restored neuron excitability deficits in the amygdala, reduced hyperactivity, and reduced PPI deficits"
COC(=O)N1CC[C@@H]2[C@H]1CCC[C@@]2(O)C#Cc1cccc(C)c1 [AFQ056],group treatment effect,[11]; 30 males with FXS aged 18 to 35 years,not associated with significant group treatment effect
same,response in 7 subject subset with full fmr1 gene methylation,"[11]; ABC subscales and total, CGI-I, Visual Analogue Scale, Repetitive Behavior Scale-Revised",significant response to AFQ056 compared to placebo
NCCS(=O)(=O)O [taurine],effect on phenotype of fmr1 KO mice,[3],Improvements in memory acquisition and retention
CC/C(=C(\c1ccccc1)c1ccc(OCCN(C)C)cc1)c1ccccc1 [Tamoxifen],ERK activation and translocation of ERK/MAPK (positive control),[12],induces ERK activation; also recorded: cytoplasmic localization of ERK 1/2
